Laboratory results from ChEMBL document CHEMBL4507291 (2021).

Key:
[1] = molecular target: Cyclin-dependent kinase 17 (Homo sapiens) (UniProt Q00537)
[2] = molecular target: Phosphatidylinositol 4-phosphate 3-kinase C2 domain-containing subunit beta (Homo sapiens) (UniProt O00750)
[3] = molecular target: Mitogen-activated protein kinase 1 (Homo sapiens) (UniProt P28482)
[4] = molecular target: Mitogen-activated protein kinase kinase kinase 1 (Homo sapiens) (UniProt Q13233)
[5] = molecular target: T1, cAMP-dependent protein kinase catalytic subunit PRKX (Homo sapiens) (UniProt P51817)
T1 sequence (whole entry): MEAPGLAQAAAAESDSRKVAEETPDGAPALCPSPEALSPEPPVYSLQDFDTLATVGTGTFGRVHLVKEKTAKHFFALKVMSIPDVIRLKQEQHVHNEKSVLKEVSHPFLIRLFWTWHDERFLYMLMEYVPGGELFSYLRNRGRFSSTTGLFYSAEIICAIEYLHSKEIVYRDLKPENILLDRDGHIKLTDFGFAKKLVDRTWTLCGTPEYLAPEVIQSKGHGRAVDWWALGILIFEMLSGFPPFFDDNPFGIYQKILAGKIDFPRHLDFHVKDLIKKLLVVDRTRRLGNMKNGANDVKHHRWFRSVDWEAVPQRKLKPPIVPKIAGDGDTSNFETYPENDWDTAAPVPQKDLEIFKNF

[6] = molecular target: T2, Serine/threonine-protein kinase Sgk2 (Homo sapiens) (UniProt Q9HBY8)
T2 sequence (whole entry): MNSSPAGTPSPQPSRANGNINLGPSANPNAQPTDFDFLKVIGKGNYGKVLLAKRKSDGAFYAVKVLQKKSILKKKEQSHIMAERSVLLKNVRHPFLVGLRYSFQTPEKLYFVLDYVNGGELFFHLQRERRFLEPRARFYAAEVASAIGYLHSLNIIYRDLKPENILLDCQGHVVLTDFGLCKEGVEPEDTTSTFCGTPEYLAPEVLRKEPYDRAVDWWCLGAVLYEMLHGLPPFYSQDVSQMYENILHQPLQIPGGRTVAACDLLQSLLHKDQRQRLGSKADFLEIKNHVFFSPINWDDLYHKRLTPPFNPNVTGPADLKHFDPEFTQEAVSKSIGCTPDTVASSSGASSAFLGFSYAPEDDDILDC

[7] = molecular target: Phosphatidylinositol 4,5-bisphosphate 3-kinase catalytic subunit beta isoform (Homo sapiens) (UniProt P42338)
[8] = molecular target: Testis-specific serine/threonine-protein kinase 1 (Homo sapiens) (UniProt Q9BXA7)
Sequence of Testis-specific serine/threonine-protein kinase 1 (Homo sapiens) (Q9BXA7 whole entry): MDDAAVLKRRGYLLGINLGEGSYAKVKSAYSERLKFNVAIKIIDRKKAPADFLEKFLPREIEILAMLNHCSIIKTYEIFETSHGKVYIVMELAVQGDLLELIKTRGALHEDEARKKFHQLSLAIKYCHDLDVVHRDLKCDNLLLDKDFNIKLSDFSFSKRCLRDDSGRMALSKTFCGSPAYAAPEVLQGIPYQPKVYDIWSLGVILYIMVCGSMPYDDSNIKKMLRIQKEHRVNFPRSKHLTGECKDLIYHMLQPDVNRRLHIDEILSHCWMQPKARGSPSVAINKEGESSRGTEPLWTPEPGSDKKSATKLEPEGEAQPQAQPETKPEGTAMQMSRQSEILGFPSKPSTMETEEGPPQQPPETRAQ

[9] = molecular target: Fibroblast growth factor receptor 2 (Homo sapiens) (UniProt P21802)
Sequence of Fibroblast growth factor receptor 2 (Homo sapiens) (P21802 22-821 limits assumed): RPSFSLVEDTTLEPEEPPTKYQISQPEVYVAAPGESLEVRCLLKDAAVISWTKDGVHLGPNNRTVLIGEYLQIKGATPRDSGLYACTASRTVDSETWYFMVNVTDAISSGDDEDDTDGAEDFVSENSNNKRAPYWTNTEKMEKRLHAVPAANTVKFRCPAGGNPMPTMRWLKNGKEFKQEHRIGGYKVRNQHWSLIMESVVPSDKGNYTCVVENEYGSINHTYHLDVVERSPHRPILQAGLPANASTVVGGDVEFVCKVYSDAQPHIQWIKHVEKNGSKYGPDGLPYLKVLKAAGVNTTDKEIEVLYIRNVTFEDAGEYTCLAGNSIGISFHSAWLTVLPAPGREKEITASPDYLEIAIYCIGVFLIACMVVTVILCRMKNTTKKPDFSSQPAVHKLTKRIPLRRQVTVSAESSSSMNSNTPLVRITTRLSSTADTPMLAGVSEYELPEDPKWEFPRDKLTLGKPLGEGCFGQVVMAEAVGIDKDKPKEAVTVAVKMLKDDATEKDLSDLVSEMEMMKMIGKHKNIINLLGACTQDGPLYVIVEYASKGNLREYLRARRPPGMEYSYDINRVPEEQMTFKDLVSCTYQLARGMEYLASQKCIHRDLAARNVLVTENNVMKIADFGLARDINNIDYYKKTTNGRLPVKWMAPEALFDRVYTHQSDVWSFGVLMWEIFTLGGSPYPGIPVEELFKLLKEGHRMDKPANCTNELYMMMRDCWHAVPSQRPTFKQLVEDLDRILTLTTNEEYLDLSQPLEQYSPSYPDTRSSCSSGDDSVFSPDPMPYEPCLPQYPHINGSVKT

[10] = molecular target: T3, Ephrin type-B receptor 1 (Homo sapiens) (UniProt P54762)
T3 sequence (whole entry): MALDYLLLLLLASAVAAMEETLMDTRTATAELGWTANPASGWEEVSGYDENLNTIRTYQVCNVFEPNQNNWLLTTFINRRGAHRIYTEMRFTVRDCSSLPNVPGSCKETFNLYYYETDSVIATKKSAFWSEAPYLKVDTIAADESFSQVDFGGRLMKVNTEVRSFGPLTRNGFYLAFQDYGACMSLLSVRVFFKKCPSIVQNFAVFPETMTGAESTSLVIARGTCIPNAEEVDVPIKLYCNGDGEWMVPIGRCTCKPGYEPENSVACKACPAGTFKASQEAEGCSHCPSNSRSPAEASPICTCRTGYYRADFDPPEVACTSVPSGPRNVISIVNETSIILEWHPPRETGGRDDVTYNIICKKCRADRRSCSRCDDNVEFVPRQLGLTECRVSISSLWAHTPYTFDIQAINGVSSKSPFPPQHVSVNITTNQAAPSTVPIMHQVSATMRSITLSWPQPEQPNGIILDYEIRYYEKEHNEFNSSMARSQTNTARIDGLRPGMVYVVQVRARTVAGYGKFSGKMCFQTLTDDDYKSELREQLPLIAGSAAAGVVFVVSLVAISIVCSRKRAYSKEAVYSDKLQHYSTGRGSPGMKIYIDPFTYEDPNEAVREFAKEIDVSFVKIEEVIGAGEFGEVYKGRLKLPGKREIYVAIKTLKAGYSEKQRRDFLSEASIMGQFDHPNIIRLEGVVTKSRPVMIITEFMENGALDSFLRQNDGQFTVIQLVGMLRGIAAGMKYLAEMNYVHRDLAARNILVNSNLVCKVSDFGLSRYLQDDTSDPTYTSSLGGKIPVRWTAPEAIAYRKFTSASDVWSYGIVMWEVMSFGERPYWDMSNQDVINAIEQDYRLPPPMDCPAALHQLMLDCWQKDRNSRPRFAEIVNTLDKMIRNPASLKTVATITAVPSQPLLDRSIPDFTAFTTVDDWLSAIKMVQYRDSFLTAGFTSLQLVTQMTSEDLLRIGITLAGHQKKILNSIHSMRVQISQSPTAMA

[11] = molecular target: Phosphorylase b kinase regulatory subunit alpha, liver isoform (Homo sapiens) (UniProt P46019)
[12] = molecular target: Tyrosine-protein kinase ABL1 (Homo sapiens) (UniProt P00519)
Sequence of Tyrosine-protein kinase ABL1 (Homo sapiens) (P00519 whole entry): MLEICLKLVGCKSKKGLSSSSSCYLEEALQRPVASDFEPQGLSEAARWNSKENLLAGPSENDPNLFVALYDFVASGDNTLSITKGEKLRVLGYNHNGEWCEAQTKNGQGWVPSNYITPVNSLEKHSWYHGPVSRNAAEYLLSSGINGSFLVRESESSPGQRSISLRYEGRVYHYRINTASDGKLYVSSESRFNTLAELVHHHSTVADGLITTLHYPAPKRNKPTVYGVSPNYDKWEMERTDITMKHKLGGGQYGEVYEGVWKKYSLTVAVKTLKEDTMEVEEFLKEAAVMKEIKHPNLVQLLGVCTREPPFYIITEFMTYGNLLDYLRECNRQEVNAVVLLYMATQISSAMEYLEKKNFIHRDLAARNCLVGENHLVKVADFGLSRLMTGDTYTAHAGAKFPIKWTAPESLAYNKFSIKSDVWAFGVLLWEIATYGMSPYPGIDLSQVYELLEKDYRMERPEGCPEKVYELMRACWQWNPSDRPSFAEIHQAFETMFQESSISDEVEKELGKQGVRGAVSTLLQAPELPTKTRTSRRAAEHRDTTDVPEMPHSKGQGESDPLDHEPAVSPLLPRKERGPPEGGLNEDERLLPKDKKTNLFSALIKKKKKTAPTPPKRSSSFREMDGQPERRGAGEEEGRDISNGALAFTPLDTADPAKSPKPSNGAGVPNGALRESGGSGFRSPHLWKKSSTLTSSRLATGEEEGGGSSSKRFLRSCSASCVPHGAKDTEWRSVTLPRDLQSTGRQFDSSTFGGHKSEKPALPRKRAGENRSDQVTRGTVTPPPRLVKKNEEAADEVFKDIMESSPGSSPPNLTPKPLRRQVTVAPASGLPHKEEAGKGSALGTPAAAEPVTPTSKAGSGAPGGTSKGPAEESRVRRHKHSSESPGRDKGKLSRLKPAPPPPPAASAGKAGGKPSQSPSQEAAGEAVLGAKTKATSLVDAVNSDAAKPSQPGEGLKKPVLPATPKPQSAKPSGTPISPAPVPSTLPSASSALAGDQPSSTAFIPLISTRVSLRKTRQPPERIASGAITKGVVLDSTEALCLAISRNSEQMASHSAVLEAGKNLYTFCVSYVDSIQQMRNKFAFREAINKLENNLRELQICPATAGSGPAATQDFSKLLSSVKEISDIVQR

[13] = molecular target: Tyrosine-protein kinase Srms (Homo sapiens) (UniProt Q9H3Y6)
Sequence of Tyrosine-protein kinase Srms (Homo sapiens) (Q9H3Y6 whole entry): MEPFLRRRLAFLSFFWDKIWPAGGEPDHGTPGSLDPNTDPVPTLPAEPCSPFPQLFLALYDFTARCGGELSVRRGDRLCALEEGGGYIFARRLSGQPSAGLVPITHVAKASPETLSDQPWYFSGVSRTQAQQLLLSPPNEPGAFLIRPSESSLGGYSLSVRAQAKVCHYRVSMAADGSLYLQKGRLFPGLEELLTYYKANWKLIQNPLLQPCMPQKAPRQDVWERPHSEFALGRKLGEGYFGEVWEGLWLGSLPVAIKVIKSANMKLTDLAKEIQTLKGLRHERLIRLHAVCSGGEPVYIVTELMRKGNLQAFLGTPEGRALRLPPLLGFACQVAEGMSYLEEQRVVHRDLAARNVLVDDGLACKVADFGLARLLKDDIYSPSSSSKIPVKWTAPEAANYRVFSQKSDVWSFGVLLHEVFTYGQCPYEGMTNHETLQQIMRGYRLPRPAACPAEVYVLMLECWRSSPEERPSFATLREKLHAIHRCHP

[14] = Compound concentration 100.0 nM
[15] = Compound concentration 1000.0 nM

Measured: residual activity

Sequence of Mitogen-activated protein kinase 1 (Homo sapiens) (P28482 whole entry): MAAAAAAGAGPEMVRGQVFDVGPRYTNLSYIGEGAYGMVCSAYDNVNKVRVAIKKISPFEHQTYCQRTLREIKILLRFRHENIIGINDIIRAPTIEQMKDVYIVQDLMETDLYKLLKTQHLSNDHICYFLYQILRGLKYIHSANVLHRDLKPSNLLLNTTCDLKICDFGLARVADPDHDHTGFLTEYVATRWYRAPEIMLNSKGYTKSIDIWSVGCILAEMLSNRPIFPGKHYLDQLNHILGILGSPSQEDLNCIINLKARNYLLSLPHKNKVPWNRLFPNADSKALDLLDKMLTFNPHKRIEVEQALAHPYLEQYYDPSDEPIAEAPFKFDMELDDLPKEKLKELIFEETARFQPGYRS
Sequence of Phosphatidylinositol 4-phosphate 3-kinase C2 domain-containing subunit beta (Homo sapiens) (O00750 whole entry, the tested form may be a part): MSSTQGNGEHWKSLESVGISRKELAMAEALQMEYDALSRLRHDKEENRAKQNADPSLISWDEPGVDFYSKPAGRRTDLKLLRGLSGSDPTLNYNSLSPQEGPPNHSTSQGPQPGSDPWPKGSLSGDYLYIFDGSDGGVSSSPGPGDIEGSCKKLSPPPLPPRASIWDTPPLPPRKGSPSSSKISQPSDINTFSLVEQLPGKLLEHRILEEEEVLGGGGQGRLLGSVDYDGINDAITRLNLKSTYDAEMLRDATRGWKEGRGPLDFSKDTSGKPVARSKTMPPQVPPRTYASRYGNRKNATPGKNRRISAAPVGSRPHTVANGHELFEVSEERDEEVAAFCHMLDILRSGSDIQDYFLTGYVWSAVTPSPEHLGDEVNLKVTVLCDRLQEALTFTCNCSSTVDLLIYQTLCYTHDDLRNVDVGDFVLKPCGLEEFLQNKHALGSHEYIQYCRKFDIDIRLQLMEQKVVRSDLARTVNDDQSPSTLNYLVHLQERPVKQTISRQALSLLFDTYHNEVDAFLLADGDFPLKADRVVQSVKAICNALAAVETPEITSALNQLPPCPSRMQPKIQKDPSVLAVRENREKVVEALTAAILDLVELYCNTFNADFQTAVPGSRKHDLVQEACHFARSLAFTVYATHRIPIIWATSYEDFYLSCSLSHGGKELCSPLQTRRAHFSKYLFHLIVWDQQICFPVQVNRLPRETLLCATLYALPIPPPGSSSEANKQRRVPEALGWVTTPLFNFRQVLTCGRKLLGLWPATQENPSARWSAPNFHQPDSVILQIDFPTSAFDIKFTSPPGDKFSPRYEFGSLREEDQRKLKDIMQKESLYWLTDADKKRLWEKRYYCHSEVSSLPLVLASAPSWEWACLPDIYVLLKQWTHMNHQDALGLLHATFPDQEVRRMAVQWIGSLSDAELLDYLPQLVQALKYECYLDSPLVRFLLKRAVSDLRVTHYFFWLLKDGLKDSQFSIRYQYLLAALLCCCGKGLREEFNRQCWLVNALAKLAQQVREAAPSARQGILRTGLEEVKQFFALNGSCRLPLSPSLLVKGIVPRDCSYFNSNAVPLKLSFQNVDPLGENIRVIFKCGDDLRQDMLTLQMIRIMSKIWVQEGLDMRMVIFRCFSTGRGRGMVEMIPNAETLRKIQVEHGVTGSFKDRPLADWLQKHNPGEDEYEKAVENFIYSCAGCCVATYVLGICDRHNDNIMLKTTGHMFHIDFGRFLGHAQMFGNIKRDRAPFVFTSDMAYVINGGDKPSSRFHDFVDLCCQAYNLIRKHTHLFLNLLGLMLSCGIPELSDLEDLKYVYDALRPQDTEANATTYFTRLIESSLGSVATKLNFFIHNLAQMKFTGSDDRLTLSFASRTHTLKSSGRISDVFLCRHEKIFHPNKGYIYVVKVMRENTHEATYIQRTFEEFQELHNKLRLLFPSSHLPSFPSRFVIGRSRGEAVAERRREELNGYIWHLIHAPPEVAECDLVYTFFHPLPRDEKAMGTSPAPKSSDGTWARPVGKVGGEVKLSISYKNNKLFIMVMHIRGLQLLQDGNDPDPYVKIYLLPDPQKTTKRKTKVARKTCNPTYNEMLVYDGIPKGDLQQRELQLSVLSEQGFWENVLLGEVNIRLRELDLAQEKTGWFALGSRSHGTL

C[C@@H]1CN(c2cc(-c3n[nH]c4ccc(OC5(C)CC5)cc34)ncn2)C[C@H](C)O1 [MLi-2]
inactive: [1]; [14] 89% | [2]; [14] 66% | [3]; [14] 98% | [4]; [14] 63% | [5]; [14] 86% | [6]; [14] 84% | [7]; [14] 59% | [8]; [14] 72% | [9]; [14] 96% | [10]; [14] 83% | [11]; [14] 91% | [12]; [14] 67% | [13]; [14] 59%

C[C@@H]1CN(c2cc(-c3nn(C)c4ccc(OC5(C)CC5)cc34)ncn2)C[C@H](C)O1 [MLi-2-NC]
inactive: [1]; [15] 88% | [2]; [15] 70% | [3]; [15] 100% | [4]; [15] 92% | [5]; [15] 92% | [6]; [15] 58% | [7]; [15] 100% | [8]; [15] 99% | [9]; [15] 100% | [10]; [15] 99% | [11]; [15] 100% | [12]; [15] 79% | [13]; [15] 83%
